Laboratory results as given in patent US10750743B2, “Pyridazinone herbicides” (E.I. DU PONT DE NEMOURS AND COMPANY, priority 2015, dated 2020).

How the values were obtained:
Format in all cases: in vivo
[1] = tested on: ducksalad (Heteranthera limosa); test: Test B flooded paddy test, visual rating; conditions: Flood, 250 g ai/ha, applied to paddy water, rated after 13 to 15 d
Summary of the method: (§1)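 Plants at the 2-leaf stage were flooded to 3 cm above soil, and test compounds were applied directly into the paddy water, which was held at that depth throughout. After 13 to 15 d in a greenhouse, injury was rated visually against untreated controls on a 0–100 scale (0 no effect, 100 complete control).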

[2] = tested on: barnyardgrass (Echinochloa crus-galli); test: Test B flooded paddy test, visual rating; conditions: Flood, 250 g ai/ha, applied to paddy water, rated after 13 to 15 d
Summary of the method: as §1

[3] = tested on: rice (Oryza sativa); test: Test B flooded paddy test, visual rating; conditions: Flood, 250 g ai/ha, applied to paddy water, rated after 13 to 15 d
Summary of the method: as §1

[4] = tested on: sedge, umbrella (small-flower umbrella sedge, Cyperus difformis); test: Test B flooded paddy test, visual rating; conditions: Flood, 250 g ai/ha, applied to paddy water, rated after 13 to 15 d
Summary of the method: as §1

[5] = tested on: barnyardgrass (Echinochloa crus-galli); test: Test A preemergence, directed soil spray, visual injury rating; conditions: 0 is no effect, 100 is complete control
Summary of the method: (§2)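 Seeds sown in a loam soil–sand blend received a directed preemergence soil spray of test chemical in a non-phytotoxic solvent mixture with surfactant. Postemergence plants were sprayed at 2 to 10 cm, one- to two-leaf stage. After approximately 10 d in greenhouse, injury was visually rated 0 (no effect) to 100 (complete control) against untreated controls.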

[6] = tested on: foxtail, giant (giant foxtail, Setaria faberii); test: as above; conditions: 0 is no effect, 100 is complete control
Summary of the method: as §2

[7] = tested on: kochia (Kochia scoparia); test: as above; conditions: 0 is no effect, 100 is complete control
Summary of the method: as §2

[8] = tested on: pigweed (Amaranthus retroflexus); test: as above; conditions: 0 is no effect, 100 is complete control
Summary of the method: as §2

[9] = tested on: ragweed (common ragweed, Ambrosia elatior); test: as above; conditions: 0 is no effect, 100 is complete control
Summary of the method: as §2

[10] = tested on: ryegrass, It. (Italian ryegrass, Lolium multiflorum); test: as above; conditions: 0 is no effect, 100 is complete control
Summary of the method: as §2

[11] = tested on: barnyardgrass (Echinochloa crus-galli); test: Test A postemergence application, visual injury rating; conditions: 0 to 100 scale, 0 no effect, 100 complete control
Summary of the method: as §2

[12] = tested on: wheat (Triticum aestivum); test: as above; conditions: 0 to 100 scale, 0 no effect, 100 complete control
Summary of the method: as §2

[13] = tested on: foxtail, giant (giant foxtail, Setaria faberii); test: as above; conditions: 0 to 100 scale, 0 no effect, 100 complete control
Summary of the method: as §2

[14] = tested on: kochia (Kochia scoparia); test: as above; conditions: 0 to 100 scale, 0 no effect, 100 complete control
Summary of the method: as §2

[15] = tested on: pigweed (Amaranthus retroflexus); test: as above; conditions: 0 to 100 scale, 0 no effect, 100 complete control
Summary of the method: as §2

[16] = tested on: corn (Zea mays); test: as above; conditions: 0 to 100 scale, 0 no effect, 100 complete control
Summary of the method: as §2

[17] = tested on: galium (catchweed bedstraw, Galium aparine); test: as above; conditions: 0 to 100 scale, 0 no effect, 100 complete control
Summary of the method: as §2

[18] = tested on: ragweed (common ragweed, Ambrosia elatior); test: as above; conditions: 0 to 100 scale, 0 no effect, 100 complete control
Summary of the method: as §2

[19] = tested on: ryegrass, It. (Italian ryegrass, Lolium multiflorum); test: as above; conditions: 0 to 100 scale, 0 no effect, 100 complete control
Summary of the method: as §2

[20] = tested on: blackgrass (Alopecurus myosuroides); test: as above; conditions: 0 to 100 scale, 0 no effect, 100 complete control
Summary of the method: as §2

| SMILES | Ducksalad plant response rating (0 to 100 scale, 0 is no effect, 100 is complete control) [1] | Barnyardgrass plant response rating (0 to 100 scale, 0 is no effect, 100 is complete control) [2] | Rice plant response rating (0 to 100 scale, 0 is no effect, 100 is complete control) [3] | Sedge, Umbrella plant response rating (0 to 100 scale, 0 is no effect, 100 is complete control) [4] | Plant response rating (0 to 100 scale), Barnyardgrass ([5]; 31 g ai/ha) | Plant response rating (0 to 100 scale), Barnyardgrass ([5]; 125 g ai/ha) | Plant response rating (0 to 100 scale), Foxtail, Giant ([6]; 31 g ai/ha) | Plant response rating (0 to 100 scale), Foxtail, Giant ([6]; 125 g ai/ha) | Plant response rating (0 to 100 scale), Kochia ([7]; 31 g ai/ha) | Plant response rating (0 to 100 scale), Kochia ([7]; 125 g ai/ha) | Plant response rating (0 to 100 scale), Pigweed ([8]; 31 g ai/ha) | Plant response rating (0 to 100 scale), Pigweed ([8]; 125 g ai/ha) | Plant response rating (0 to 100 scale), Ragweed ([9]; 31 g ai/ha) | Plant response rating (0 to 100 scale), Ragweed ([9]; 125 g ai/ha) | Plant response rating (0 to 100 scale), Ryegrass, It. ([10]; 31 g ai/ha) | Plant response rating (0 to 100 scale), Ryegrass, It. ([10]; 125 g ai/ha) | Barnyardgrass plant response rating ([11]; 31 g ai/ha) | Barnyardgrass plant response rating ([11]; 125 g ai/ha) | Wheat plant response rating ([12]; 31 g ai/ha) | Wheat plant response rating ([12]; 125 g ai/ha) | further results |
| --- | --- | --- | --- | --- | --- | --- | --- | --- | --- | --- | --- | --- | --- | --- | --- | --- | --- | --- | --- | --- | --- |
| CCC(=O)Oc1c(C)nn(C)c(=O)c1-c1ccc(Cl)c2cc(C)oc12 [Compound 41] | 20 | 20 | 0 | 75 | 0 | 70 | 20 | 80 | 0 | 0 | 0 | 90 | 0 | 70 | 90 | 100 | 20 | 50 | 0 | 0 | Foxtail, Giant plant response rating ([13]; 31 g ai/ha): 20; Foxtail, Giant plant response rating ([13]; 125 g ai/ha): 60; Kochia plant response rating ([14]; 31 g ai/ha): 0; Kochia plant response rating ([14]; 125 g ai/ha): 0; Pigweed plant response rating ([15]; 31 g ai/ha): 40; Pigweed plant response rating ([15]; 125 g ai/ha): 70; Corn plant response rating ([16]; 31 g ai/ha): 0; Corn plant response rating ([16]; 125 g ai/ha): 20; Galium plant response rating ([17]; 31 g ai/ha): 90; Galium plant response rating ([17]; 125 g ai/ha): 100; Ragweed plant response rating ([18]; 31 g ai/ha): 80; Ragweed plant response rating ([18]; 125 g ai/ha): 80; Ryegrass, It. plant response rating ([19]; 31 g ai/ha): 90; Ryegrass, It. plant response rating ([19]; 125 g ai/ha): 100; Blackgrass plant response rating ([20]; 31 g ai/ha): 20; Blackgrass plant response rating ([20]; 125 g ai/ha): 50 |
| CC(=O)Oc1c(C)nn(C)c(=O)c1-c1ccc(Cl)c2cc(C)oc12 [Compound 42] | 80 | 0 | 0 | 60 | 10 | 60 | 10 | 50 | 0 | 0 | 0 | 40 | 30 | 40 | 60 | 90 | 10 | 40 | 0 | 0 | Foxtail, Giant plant response rating ([13]; 31 g ai/ha): 10; Foxtail, Giant plant response rating ([13]; 125 g ai/ha): 30; Kochia plant response rating ([14]; 31 g ai/ha): 0; Kochia plant response rating ([14]; 125 g ai/ha): 0; Pigweed plant response rating ([15]; 31 g ai/ha): 30; Pigweed plant response rating ([15]; 125 g ai/ha): 50; Corn plant response rating ([16]; 31 g ai/ha): 0; Corn plant response rating ([16]; 125 g ai/ha): 10; Galium plant response rating ([17]; 31 g ai/ha): 90; Galium plant response rating ([17]; 125 g ai/ha): 90; Ragweed plant response rating ([18]; 31 g ai/ha): 20; Ragweed plant response rating ([18]; 125 g ai/ha): 10; Ryegrass, It. plant response rating ([19]; 31 g ai/ha): 70; Ryegrass, It. plant response rating ([19]; 125 g ai/ha): 90; Blackgrass plant response rating ([20]; 31 g ai/ha): 20; Blackgrass plant response rating ([20]; 125 g ai/ha): 50 |
| Cc1cc2c(Cl)ccc(-c3c(O)c(C)nn(C)c3=O)c2o1 [Compound 43] | 40 | 0 | 0 | 35 | 10 | 30 | 10 | 40 | 0 | 0 | 0 | 0 | 30 | 30 | 60 | 80 | 0 | 10 | 0 | 10 | Foxtail, Giant plant response rating ([13]; 31 g ai/ha): 0; Foxtail, Giant plant response rating ([13]; 125 g ai/ha): 0; Kochia plant response rating ([14]; 31 g ai/ha): 0; Kochia plant response rating ([14]; 125 g ai/ha): 0; Pigweed plant response rating ([15]; 31 g ai/ha): 0; Pigweed plant response rating ([15]; 125 g ai/ha): 0; Corn plant response rating ([16]; 31 g ai/ha): 0; Corn plant response rating ([16]; 125 g ai/ha): 0; Galium plant response rating ([17]; 31 g ai/ha): 70; Galium plant response rating ([17]; 125 g ai/ha): 80; Ragweed plant response rating ([18]; 31 g ai/ha): 0; Ragweed plant response rating ([18]; 125 g ai/ha): 20; Ryegrass, It. plant response rating ([19]; 31 g ai/ha): 50; Ryegrass, It. plant response rating ([19]; 125 g ai/ha): 80; Blackgrass plant response rating ([20]; 31 g ai/ha): 0; Blackgrass plant response rating ([20]; 125 g ai/ha): 50 |
| Cc1cc2c(-c3c(OC(=O)c4ccccc4)c(C)nn(C)c3=O)ccc(Cl)c2o1 [Compound 44] | 0 | 0 | 0 | 0 | 0 | 0 | 0 | 0 | 0 | 0 | 0 | 0 | 0 | 0 | 0 | 20 | 0 | 0 | 0 | 0 | Foxtail, Giant plant response rating ([13]; 31 g ai/ha): 0; Foxtail, Giant plant response rating ([13]; 125 g ai/ha): 0; Kochia plant response rating ([14]; 31 g ai/ha): 0; Kochia plant response rating ([14]; 125 g ai/ha): 0; Pigweed plant response rating ([15]; 31 g ai/ha): 0; Pigweed plant response rating ([15]; 125 g ai/ha): 0; Corn plant response rating ([16]; 31 g ai/ha): 0; Corn plant response rating ([16]; 125 g ai/ha): 0; Galium plant response rating ([17]; 31 g ai/ha): 0; Galium plant response rating ([17]; 125 g ai/ha): 0; Ragweed plant response rating ([18]; 31 g ai/ha): 0; Ragweed plant response rating ([18]; 125 g ai/ha): 0; Ryegrass, It. plant response rating ([19]; 31 g ai/ha): 0; Ryegrass, It. plant response rating ([19]; 125 g ai/ha): 0; Blackgrass plant response rating ([20]; 31 g ai/ha): 0; Blackgrass plant response rating ([20]; 125 g ai/ha): 0 |
